In patent US20260248134A1, “A METHOD FOR CONTROLLING WEEDS” (UPL MAURITIUS LIMITED, priority 2023, published 2026):

What was measured:
Type in all cases: in vivo
Digitaria insularis = experiment: Control of weeds at pre-emergence stage (Example 9)
Text: (§1) The effect of application of asulam was observed on the growth of weeds at pre-emergence stage for different application rates. The percentage (%) control of weeds has been evaluated and disclosed in Table 9.

Eleusine indica = experiment: as above
Text: as §1

Bidens pilosa = experiment: Control of weeds at post-emergence stage (Example 10)
Text: (§2) The effect of application of asulam was observed on the growth of weeds at post-emergence stage for different application rates. The percentage (%) control of weeds has been evaluated and disclosed in Table 10.

Brachiaria plantaginea = experiment: as above
Text: as §2

Cynodon dactylon = experiment: as above
Text: as §2

Digitaria nuda = experiment: as above
Text: as §2

Structure (SMILES): COC(=O)NS(=O)(=O)c1ccc(N)cc1 [Asulam, asulam]
- percentage (%) control of weeds (Digitaria insularis; 1500 g a.i/ha, 35 DAA): 100%
- percentage (%) control of weeds (Digitaria insularis; 1500 g a.i/ha, 49 DAA): 100%
- percentage (%) control of weeds (Digitaria insularis; 1800 g a.i/ha, 28 DAA): 99%
- percentage (%) control of weeds (Digitaria insularis; 1800 g a.i/ha, 35 DAA): 100%
- percentage (%) control of weeds (Digitaria insularis; 1800 g a.i/ha, 49 DAA): 100%
- percentage (%) control of weeds (Digitaria insularis; 2250 g a.i/ha, 28 DAA): 100%
- percentage (%) control of weeds (Digitaria insularis; 2250 g a.i/ha, 35 DAA): 100%
- percentage (%) control of weeds (Digitaria insularis; 2250 g a.i/ha, 49 DAA): 100%
- percentage (%) control of weeds (Digitaria insularis; 2500 g a.i/ha, 28 DAA): 99%
- percentage (%) control of weeds (Digitaria insularis; 2500 g a.i/ha, 35 DAA): 100%
- percentage (%) control of weeds (Digitaria insularis; 2500 g a.i/ha, 49 DAA): 100%
- percentage (%) control of weeds (Eleusine indica; 1200 g a.i/ha, 28 DAA): 83%
- percentage (%) control of weeds (Eleusine indica; 1200 g a.i/ha, 35 DAA): 78%
- percentage (%) control of weeds (Eleusine indica; 1200 g a.i/ha, 49 DAA): 99%
- percentage (%) control of weeds (Eleusine indica; 1500 g a.i/ha, 28 DAA): 88%
- percentage (%) control of weeds (Eleusine indica; 1500 g a.i/ha, 35 DAA): 88%
- percentage (%) control of weeds (Eleusine indica; 1500 g a.i/ha, 49 DAA): 99%
- percentage (%) control of weeds (Eleusine indica; 1800 g a.i/ha, 28 DAA): 90%
- percentage (%) control of weeds (Eleusine indica; 1800 g a.i/ha, 35 DAA): 91%
- percentage (%) control of weeds (Eleusine indica; 1800 g a.i/ha, 49 DAA): 100%
- percentage (%) control of weeds (Eleusine indica; 2250 g a.i/ha, 28 DAA): 92%
- percentage (%) control of weeds (Eleusine indica; 2250 g a.i/ha, 35 DAA): 93%
- percentage (%) control of weeds (Eleusine indica; 2250 g a.i/ha, 49 DAA): 100%
- percentage (%) control of weeds (Eleusine indica; 2500 g a.i/ha, 28 DAA): 91%
- percentage (%) control of weeds (Eleusine indica; 2500 g a.i/ha, 35 DAA): 92%
- percentage (%) control of weeds (Eleusine indica; 2500 g a.i/ha, 49 DAA): 100%
- percentage (%) control of weeds (Bidens pilosa; 1000 g a.i/ha, 28 DAA): 100%
- percentage (%) control of weeds (Bidens pilosa; 1000 g a.i/ha, 35 DAA): 100%
- percentage (%) control of weeds (Bidens pilosa; 1000 g a.i/ha, 49 DAA): 100%
- percentage (%) control of weeds (Bidens pilosa; 1500 g a.i/ha, 28 DAA): 100%
- percentage (%) control of weeds (Bidens pilosa; 1500 g a.i/ha, 35 DAA): 100%
- percentage (%) control of weeds (Bidens pilosa; 1500 g a.i/ha, 49 DAA): 100%
- percentage (%) control of weeds (Bidens pilosa; 1800 g a.i/ha, 28 DAA): 94%
- percentage (%) control of weeds (Bidens pilosa; 1800 g a.i/ha, 35 DAA): 97%
- percentage (%) control of weeds (Bidens pilosa; 1800 g a.i/ha, 49 DAA): 97%
- percentage (%) control of weeds (Bidens pilosa; 2250 g a.i/ha, 28 DAA): 93%
- percentage (%) control of weeds (Bidens pilosa; 2250 g a.i/ha, 35 DAA): 95%
- percentage (%) control of weeds (Bidens pilosa; 2250 g a.i/ha, 49 DAA): 94%
- percentage (%) control of weeds (Brachiaria plantaginea; 1800 g a.i/ha, 28 DAA): 92%
- percentage (%) control of weeds (Brachiaria plantaginea; 1800 g a.i/ha, 35 DAA): 92%
- percentage (%) control of weeds (Brachiaria plantaginea; 1800 g a.i/ha, 49 DAA): 83%
- percentage (%) control of weeds (Brachiaria plantaginea; 2250 g a.i/ha, 28 DAA): 95%
- percentage (%) control of weeds (Brachiaria plantaginea; 2250 g a.i/ha, 35 DAA): 88%
- percentage (%) control of weeds (Brachiaria plantaginea; 2250 g a.i/ha, 49 DAA): 73%
- percentage (%) control of weeds (Brachiaria plantaginea; 2500 g a.i/ha, 28 DAA): 93%
- percentage (%) control of weeds (Brachiaria plantaginea; 2500 g a.i/ha, 35 DAA): 92%
- percentage (%) control of weeds (Brachiaria plantaginea; 2500 g a.i/ha, 49 DAA): 100%
- percentage (%) control of weeds (Cynodon dactylon; 2400 g a.i/ha, 28 DAA): 94%
- percentage (%) control of weeds (Cynodon dactylon; 2400 g a.i/ha, 35 DAA): 97%
- percentage (%) control of weeds (Cynodon dactylon; 2400 g a.i/ha, 49 DAA): 99%
- percentage (%) control of weeds (Cynodon dactylon; 2800 g a.i/ha, 28 DAA): 96%
- percentage (%) control of weeds (Cynodon dactylon; 2800 g a.i/ha, 35 DAA): 97%
- percentage (%) control of weeds (Cynodon dactylon; 2800 g a.i/ha, 49 DAA): 100%
- percentage (%) control of weeds (Cynodon dactylon; 3200 g a.i/ha, 28 DAA): 94%
- percentage (%) control of weeds (Cynodon dactylon; 3200 g a.i/ha, 35 DAA): 94%
- percentage (%) control of weeds (Cynodon dactylon; 3200 g a.i/ha, 49 DAA): 96%
- percentage (%) control of weeds (Cynodon dactylon; 4000 g a.i/ha, 28 DAA): 95%
- percentage (%) control of weeds (Cynodon dactylon; 4000 g a.i/ha, 35 DAA): 96%
- percentage (%) control of weeds (Cynodon dactylon; 4000 g a.i/ha, 49 DAA): 100%
- percentage (%) control of weeds (Digitaria nuda; 2800 g a.i/ha, 28 DAA): 99%
- percentage (%) control of weeds (Digitaria nuda; 2800 g a.i/ha, 35 DAA): 99%
- percentage (%) control of weeds (Digitaria nuda; 2800 g a.i/ha, 49 DAA): 99%
- percentage (%) control of weeds (Digitaria nuda; 3200 g a.i/ha, 28 DAA): 96%
- percentage (%) control of weeds (Digitaria nuda; 3200 g a.i/ha, 35 DAA): 100%
- percentage (%) control of weeds (Digitaria nuda; 3200 g a.i/ha, 49 DAA): 100%
- percentage (%) control of weeds (Digitaria nuda; 4000 g a.i/ha, 28 DAA): 93%
- percentage (%) control of weeds (Digitaria nuda; 4000 g a.i/ha, 35 DAA): 94%
- percentage (%) control of weeds (Digitaria nuda; 4000 g a.i/ha, 49 DAA): 94%
